Measured values from PubChem BioAssay AID2060485 (Molecular Pharmacology Branch, DTP, NCI, 2025).

Tested on: A375 multi-cell spheroids with HUVEC/MSC, viability
Assay: Anticancer human tumor A375 cell line growth inhibition [GQUAD];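 also: spheroids exposed to compounds for seven days before readout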
Conditions: for IC50: curve of first compound; for viability, T/C: stronger effect = lower value
Method in brief: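 Tumor cells were grown as complex spheroids with HUVEC endothelial cells and mesenchymal stem cells as stroma. G-quadruplex stabilizers were combined with targeted agents over half-log dilutions from near the clinical Cmax, or from 10 microM.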

[1] = second compound 0.0316 µM, first compound 0.0316 µM
[2] = second compound 0.0316 µM, first compound 0.1 µM
[3] = second compound 0.0316 µM, first compound 0.316 µM
[4] = second compound 0.0316 µM, first compound 1 µM
[5] = second compound 0.0316 µM, first compound 3.16 µM
[6] = second compound 0.0316 µM, first compound 10 µM
[7] = second compound 0.1 µM, first compound 0.0316 µM
[8] = second compound 0.1 µM, first compound 0.1 µM
[9] = second compound 0.1 µM, first compound 0.316 µM
[10] = second compound 0.1 µM, first compound 1 µM
[11] = second compound 0.1 µM, first compound 3.16 µM
[12] = second compound 0.1 µM, first compound 10 µM
[13] = second compound 0.316 µM, first compound 0.0316 µM
[14] = second compound 0.316 µM, first compound 0.1 µM
[15] = second compound 0.316 µM, first compound 0.316 µM
[16] = second compound 0.316 µM, first compound 1 µM
[17] = second compound 0.316 µM, first compound 3.16 µM
[18] = second compound 0.316 µM, first compound 10 µM
[19] = second compound 1 µM, first compound 0.0316 µM
[20] = second compound 1 µM, first compound 0.1 µM
[21] = second compound 1 µM, first compound 0.316 µM
[22] = second compound 1 µM, first compound 1 µM
[23] = second compound 1 µM, first compound 3.16 µM
[24] = second compound 1 µM, first compound 10 µM
[25] = second compound 3.16 µM, first compound 0.0316 µM
[26] = second compound 3.16 µM, first compound 0.1 µM
[27] = second compound 3.16 µM, first compound 0.316 µM
[28] = second compound 3.16 µM, first compound 1 µM
[29] = second compound 3.16 µM, first compound 3.16 µM
[30] = second compound 3.16 µM, first compound 10 µM
[31] = second compound 10 µM, first compound 0.0316 µM
[32] = second compound 10 µM, first compound 0.1 µM
[33] = second compound 10 µM, first compound 0.316 µM
[34] = second compound 10 µM, first compound 1 µM
[35] = second compound 10 µM, first compound 3.16 µM
[36] = second compound 10 µM, first compound 10 µM

Work on `C=CCn1c(=O)c2cnc(Nc3ccc(N4CCN(C)CC4)cc3)nc2n1-c1cccc(C(C)(C)O)n1` + Cc1[nH]c2ccc(F)cc2c1-c1nc2c3cccnc3c3ncccc3c2[nH]1 yielded an IC50 (second compound 0.0316 µM) of 1040 nM, an IC50 (second compound 0.1 µM) of 1100 nM and an IC50 (second compound 0.316 µM) of 968 nM. For the same molecule, the IC50 (second compound 1 µM) was 703 nM, the IC50 (second compound 3.16 µM) was 72.2 nM and the IC50 (second compound 10 µM) was 149 nM. It also gave a viability, T/C [1] of 108%, a viability, T/C [2] of 94.2% and a viability, T/C [3] of 93.6%. The viability, T/C [4] was 51.6%, the viability, T/C [5] was 11.5% and the viability, T/C [6] was 4.8%. The viability, T/C [7] was 106%, the viability, T/C [8] was 94.2% and the viability, T/C [9] was 94.2%. The viability, T/C [10] was 52.7%, the viability, T/C [11] was 15.4% and the viability, T/C [12] was 6.47%. It also gave a viability, T/C [13] of 104%, a viability, T/C [14] of 103% and a viability, T/C [15] of 93.3%. It also gave a viability, T/C [16] of 48.8%, a viability, T/C [17] of 12.4% and a viability, T/C [18] of 6.56%. The viability, T/C [19] was 101%, the viability, T/C [20] was 104% and the viability, T/C [21] was 80%. For the same molecule, the viability, T/C [22] was 36.8%, the viability, T/C [23] was 12.3% and the viability, T/C [24] was 8.03%. For the same molecule, the viability, T/C [25] was 59.1%, the viability, T/C [26] was 45.1% and the viability, T/C [27] was 33.3%. It also gave a viability, T/C [28] of 19.5%, a viability, T/C [29] of 7.29% and a viability, T/C [30] of 5.68%. The viability, T/C [31] was 77.5%, the viability, T/C [32] was 63.9% and the viability, T/C [33] was 23.9%. The viability, T/C [34] was 20.2%, the viability, T/C [35] was 8.19% and the viability, T/C [36] was 5.93%.

`CC(C)(O)C1CCC(Nc2ccc3ncc(-c4cccc(C(F)(F)F)c4)n3n2)CC1` (stereo unspecified) + Cc1[nH]c2ccc(F)cc2c1-c1nc2c3cccnc3c3ncccc3c2[nH]1 was tested, and the IC50 (second compound 0.0316 µM) was > 10000 nM, the IC50 (second compound 0.1 µM) was > 10000 nM and the IC50 (second compound 0.316 µM) was > 10000 nM. The IC50 (second compound 1 µM) was > 10000 nM, the IC50 (second compound 3.16 µM) was 66.7 nM and the IC50 (second compound 10 µM) was 845 nM. For the same molecule, the viability, T/C [1] was 99.5%, the viability, T/C [2] was 100% and the viability, T/C [3] was 96.5%. For the same molecule, the viability, T/C [4] was 112%, the viability, T/C [5] was 94.4% and the viability, T/C [6] was 92.1%. It also gave a viability, T/C [7] of 103%, a viability, T/C [8] of 110% and a viability, T/C [9] of 97.3%. It also gave a viability, T/C [10] of 113%, a viability, T/C [11] of 84.7% and a viability, T/C [12] of 87.6%. The viability, T/C [13] was 98.5%, the viability, T/C [14] was 102% and the viability, T/C [15] was 105%. It also gave a viability, T/C [16] of 100%, a viability, T/C [17] of 77.6% and a viability, T/C [18] of 86.1%. For the same molecule, the viability, T/C [19] was 106%, the viability, T/C [20] was 104% and the viability, T/C [21] was 101%. For the same molecule, the viability, T/C [22] was 93.6%, the viability, T/C [23] was 47.4% and the viability, T/C [24] was 73.7%. It also gave a viability, T/C [25] of 49.7%, a viability, T/C [26] of 52.3% and a viability, T/C [27] of 39%. It also gave a viability, T/C [28] of 30.2%, a viability, T/C [29] of 10.4% and a viability, T/C [30] of 20.4%. For the same molecule, the viability, T/C [31] was 76.7%, the viability, T/C [32] was 82.9% and the viability, T/C [33] was 72.3%. For the same molecule, the viability, T/C [34] was 46.9%, the viability, T/C [35] was 16.2% and the viability, T/C [36] was 42.3%.

With `COc1ncnc(C2CC2)c1-c1ncc2cnn(Cc3ccc(-c4nc(C(F)(F)F)cn4C(C)C)cc3)c2n1` + Cc1[nH]c2ccc(F)cc2c1-c1nc2c3cccnc3c3ncccc3c2[nH]1 the IC50 (second compound 0.0316 µM) was > 10000 nM, the IC50 (second compound 0.1 µM) was > 10000 nM and the IC50 (second compound 0.316 µM) was > 10000 nM. The IC50 (second compound 1 µM) was > 10000 nM, the IC50 (second compound 3.16 µM) was 3730 nM and the IC50 (second compound 10 µM) was 6580 nM. The viability, T/C [1] was 102%, the viability, T/C [2] was 107% and the viability, T/C [3] was 109%. The viability, T/C [4] was 108%, the viability, T/C [5] was 107% and the viability, T/C [6] was 106%. It also gave a viability, T/C [7] of 119%, a viability, T/C [8] of 106% and a viability, T/C [9] of 93.8%. The viability, T/C [10] was 112%, the viability, T/C [11] was 107% and the viability, T/C [12] was 123%. For the same molecule, the viability, T/C [13] was 104%, the viability, T/C [14] was 104% and the viability, T/C [15] was 108%. For the same molecule, the viability, T/C [16] was 106%, the viability, T/C [17] was 112% and the viability, T/C [18] was 108%. It also gave a viability, T/C [19] of 104%, a viability, T/C [20] of 106% and a viability, T/C [21] of 99.9%. For the same molecule, the viability, T/C [22] was 106%, the viability, T/C [23] was 100% and the viability, T/C [24] was 104%. The viability, T/C [25] was 72.2%, the viability, T/C [26] was 72.5% and the viability, T/C [27] was 77%. The viability, T/C [28] was 61%, the viability, T/C [29] was 54.1% and the viability, T/C [30] was 34.3%. For the same molecule, the viability, T/C [31] was 88.9%, the viability, T/C [32] was 92.9% and the viability, T/C [33] was 87.2%. The viability, T/C [34] was 79.7%, the viability, T/C [35] was 61.3% and the viability, T/C [36] was 43.5%.
